Source: US8785388B2, “TAT-BH3 methods for treating arthritis” (Saint Louis University, priority 2007, dated 2014)
Square brackets hold non-standard residues; d marks the D form. Peptide text beside a SMILES is read from it. Orn = NCCC[C@H](N)C(=O)O

Key:
[1] = test system: platelets; conditions: literature statement; cited from earlier work
[2] = test system: cells that express high levels of Mcl-1; conditions: literature statement; cited from earlier work
[3] = test system: K/B×N serum transfer-induced arthritis; assay: Histopathological scoring of ankle sections (H&E, safranin O/methyl green); assay type: in vivo, mice; conditions: saline vs TAT-inactive BH3
Experimental: (§1) Paraffin embedded ankle or liver sections were stained with hematoxylin and eosin (H&E), Safranin O and methyl green. Histopathological scoring was performed and ankle sections were evaluated by examining at least 3 sections/ankle and 3 fields/section at 400× magnification. H&E ankle sections were scored on a 0-5 scale for inflammation, with 0=normal, 1=minimal infiltration, 2=mild infiltration, 3=moderate infiltration, […], mad 5=severe infiltration. Bone erosion was scored on a 0-5 scale by viewing H&E ankle sections, with 0=no or normal bone resorption, 1=small areas of resorption, 2=more numerous areas of resorption, 3=obvious resorption, 4=full thickness defects in the bone without distortion of the profile, 5=full thickness defects in the bone with distortion of the profile. H&E ankle stained sections were scored on a 0-5 scale for pannus formation, with 0=no pannus formation, 1=minimal pannus formation, 2=mild pannus formation, 3=moderate pannus formation, 4=marked pannus formation, and 5=severe pannus formation. H&E and Safranin 0 and methyl green sections were scored on a 0-5 scale for cartilage damage, with 0=no damage, 1-2=superficial cartilage destruction, 3-4=cartilage destruction to middle zone, 5=cartilage destruction to tide mark. Polymorphonuclear (PMN) leukocyte infiltration: 0=no PMNs, 1=rare scattered PMNs, 2=more frequent scattered PMNs, 3=small clusters of PMNs, 4=larger clusters of PMNs, mad 5=sheets of PMNs (abscess). Histopathological scoring was conducted on an Olympus BX40 microscope (1000×). Photographs were taken on a Nikon microscope equipped with the Nikon digital camera DMX 1200.
To accurately assess the degree of inflammation and destruction of cartilage and bone, ankle sections were examined using a histopathological scoring system on hematoxylin and eosin (H& E) or safranin O-methyl green stained ankle sections.

[4] = test system: IL-1β, TNFα, MCP-1, KC, MMP-3; assay: ELISA of pro-inflammatory molecules in ankle extracts; assay type: in vivo, mouse; parameters: IL-1β / TNFα / MCP-1 / KC / MMP-3: unit not given here; conditions: ankle joints, seven days post-serum transfer; mean ± standard error
Experimental: (§2) At each time point and prior to euthanasia, the degree of arthritis as indicated by joint swelling was quantitated by measuring two perpendicular diameters of the ankles using a caliper (Lange Caliper: Cambridge Scientific Industries, Cambridge Mass.). Joint circumference was calculated using the geometric formula of ellipse circumference (2πX √(a^2+b^2)/2). Following euthanasia, serum was isolated from peripheral blood by cardiac stick and ankle joints were removed. One of the ankle joints was fixed in 10% neutral buffered formalin for 24 hours, decalcified in EDTA-decalcification buffer for two weeks, embedded in paraffin, and sectioned. The other ankle joint was placed in liquid nitrogen, grounded into a fine powder by mortal and pestle, digested in protein lysis buffer ([…], 0.5% NP-40, 50 mM Tris, and 2 mM EDTA) in the presence of phosphatase and protease inhibitors, and homogenized on ice for 20 seconds. To examine any toxicity due to systemic delivery of TAT-Bim peptides, alkaline phosphatase (ALP), […] (AST), alanine aminotransferase (ALT), and blood urea nitrogen levels were measured.
For detection of mouse IL-1β, TNFα, MCP-1, KC, or MMP-3 in ankle extracts, sandwich ELISAs were performed according to the manufacturer's instructions (R & D Systems, Minneapolis, Minn.). The sensitivity for all cytokines was 15.6 pg/mL for IL-1β and KC, 7.813 pg/mL for TNFα and MCP-1, and 0.312 ng/mL for MMP3. ELISAs were quantitated by absorbance at 450 nm on a microplate reader (BioRad, Hercules, Calif.). Data obtained using ELISA on ankle extracts were normalized by the total protein concentration (μg/μL) for each individual ankle extract.
Mice were euthanized at seven days post-serum transfer. Ankle joints from each mouse were isolated, snap frozen, grounded into a fine powder, lysed, and examined for IL-1β, TNFα, MCP-1, KC, and MMP-3 production using an ELISA. Data are shown as μg/μL per joint. Values represent the mean±standard error, which were compared by Student's t-test.

[5] = test system: IL-1β, TNFα, MCP-1, KC; assay: Circulating cytokine levels in serum; assay type: in vivo, mice; conditions: between saline, TAT-inactive BH3 and TAT-BH3 groups
Experimental: as §2
TAT-BH3 peptides treatment reduces the numbers of myeloid cells in arthritic joints. […] To this end, the numbers of polymorphonuclear cell and macrophages in saline and BH3 peptide arthritic mice were quantified. […]

[6] = test system: peripheral blood cells; assay: Peripheral blood cell counts (flow cytometry, hematology analyzer); assay type: in vivo, mice; conditions: peripheral blood, mean ± standard error
Experimental: Peripheral blood and bone marrow were isolated from mice following euthanasia. Total leukocyte numbers were determined using an automated hematology analyzer ABX Pentra 60 (Diamond Diagnostics, Inc, Holliston, Mass.). The red blood cells in peripheral blood were lysed and the remaining cells were fixed with BD FACS lysing solution (BD Biosciences, Pharmingen) following incubation with antibodies. Bone marrow cells were isolated by flushing Dulbecco's Modified Eagle Medium (DMEM) (Gibco, Grand Island, N.Y.) through the tibias and red blood cells were lysed with BD PharM Lyse (BD Biosciences, Pharmingen) prior to incubation with antibodies. Cells with incubated with Fc Block (BD Biosciences, Pharmingen) then stained with fluorochrome conjugated antibodies to CD45, CD11b, Gr-1, CD62L, Ly-6C, Ly-6G, CD31 (BD Biosciences, Pharmingen) or isotype control antibodies for 30 minutes. Cells were acquired on a BD LSRII (BD Biosciences, Pharmingen) using Diva Software at the Saint Louis University Core Flow Cytometry Facility. All analysis was performed using FlowJo software (Tree Star Inc.).
Peripheral blood was isolated by cardiac sticks. Cells were blocked for 10 minutes with Fc block and then stained with anti-CD45, anti-CD19, anti-CD3, anti-CD4, anti-CDS, anti-CD11b, anti-Gr-1, and anti-CD62L antibodies for 30 minutes. Platelets and RBCs were determined on an automated hematology analyzer ABX Pentra 60. Following incubation with antibodies red blood cells were lysed and cells were fixed with Becton Dickenson FACS lysing solution.

[7] = test system: K/B×N serum transfer-induced arthritis; assay: K/B×N serum transfer-induced arthritis, ankle circumference (joint swelling); assay type: in vivo, mice
Source text: The seven-week-old progeny from homozygous KRN TCR transgenic mice (C57BL/6 background) crossed with non-obese diabetes (NOD) mice (K/B×N) were euthanized, peripheral blood was isolated, and serum were collected and pooled. One hundred and fifty microliters of K/B×N serum were intraperitoneally injected on each flank of 6-week old wt mice.
as §2
Therefore, peptides to the BH3 domain of Bim were used that are fused to polycationic peptide derived from HIV-1 TAT. These peptides have shown to activate Bak and Bax, suppress Bcl-2 and Mcl-1, induce mitochondrial permeability, and release mitochondrial cytochrome c. Mice were intraperitoneally injected with K/B×N serum to induce the effector phase of inflammatory arthritis.

[8] = Toxicity: serum ALP, AST, ALT, blood urea nitrogen and liver histology in arthritic mice; assay type: in vivo; conditions: liver sections of arthritic mice
Experimental: as §2, §1

CN(C)CC[C@H](CSc1ccccc1)Nc1ccc(S(=O)(=O)NC(=O)c2ccc(N3CCN(Cc4ccccc4-c4ccc(Cl)cc4)CC3)cc2)cc1[N+](=O)[O-] [ABT-737]
effect on platelet numbers [1]: dramatic effect | effect on cells that express high levels of Mcl-1 [2]: no effect

CC[C@H](C)[C@H](NC(=O)[C@H](CCCNC(=N)N)NC(=O)[C@H](CCCNC(=N)N)NC(=O)[C@H](C)NC(=O)[C@H](CCC(=O)O)NC(=O)[C@H](CCC(N)=O)NC(=O)[C@H](C)NC(=O)[C@@H](NC(=O)[C@H](Cc1c[nH]c2ccccc12)NC(=O)[C@@H](NC(=O)[C@H](CCC(=O)O)NC(=O)[C@H](CCCNC(=N)N)NC(=O)[C@H](CCCNC(=N)N)NC(=O)[C@H](CCCNC(=N)N)NC(=O)[C@H](CCCN)NC(=O)[C@H](CCCNC(=N)N)NC(=O)[C@H](CCCNC(=N)N)NC(=O)[C@H](CCCCN)NC(=O)[C@H](CCCCN)NC(=O)[C@H](CCCNC(=N)N)NC(C)=O)[C@@H](C)CC)[C@@H](C)CC)C(=O)NCC(=O)N[C@@H](C)C(=O)N[C@@H](CCC(=O)O)C(=O)N[C@@H](Cc1ccccc1)C(=O)N[C@@H](CC(N)=O)C(=O)N[C@@H](C)C(=O)N[C@@H](Cc1ccc(O)cc1)C(=O)N[C@@H](Cc1ccc(O)cc1)C(=O)N[C@@H](C)C(=O)N[C@@H](CCCNC(=N)N)C(=O)O [reference compound] (Ac-RKKRR[Orn]RRREIWIAQEARRIGAEFNAYYAR-OH)
difference in histological scores versus saline [3]: no statistical difference | IL-1β [4]: 824 ± 103 | KC [4]: 428 ± 45 | MCP-1 [4]: 196 ± 17 | MMP-3 [4]: 17 ± 4 | TNFα [4]: 4.4 ± 0.3 | circulating levels of IL-1β, TNFα, MCP-1, and KC in serum [5]: no differences | Platelets ([6]; hematology analyzer): 1305.75 ± 70.03 (1E6) | RBCs ([6]; hematology analyzer): 9.84 ± 0.22 (1E6) | B-cells+ [6]: 2.38 ± 0.21 (1E6) | CD4+ T-cells [6]: 1.15 ± 0.10 (1E6) | CD8+ T-cells [6]: 0.72 ± 0.06 (1E6) | Inflammatory monocytes [6]: 0.25 ± 0.03 (1E6) | N-K-cells [6]: 0.19 ± 0.13 (1E6) | Resident Monocytes [6]: 0.14 ± 0.01 (1E6) | T-cells [6]: 1.94 ± 0.17 (1E6) | Total Leukocytes [6]: 6.1 ± 0.18 (1E6) | change in ankle circumference ([7]; day 2 after K/B×N serum, 2 mg/kg i.p.): 1.6 mm | difference in arthritis (ankle circumference) versus saline ([7]; saline vs TAT-inactive BH3): no statistical difference | liver histology [8]: no gross histologic abnormalities
